One experiment concerns K. pneumo 13882. Put plainly: Selective lysis test, OD600, meropenem and cefotaxime (Example 2). Format: cell-based, K. pneumoniae. On the procedure:
(§1) In this experiment the following strains were tested: strain K. pneumoniae 13882 (previously considered meropenem sensitive and cefotaxime sensitive); E. coli BAA-197 (ESBL) (which expresses an extended-spectrum (beta)-lactamase enzyme and was previously considered meropenem sensitive and cefotaxime resistant); K. pneumoniae BAA-1705 (KPC) (which expresses a carbapenemase enzyme and was previously considered meropenem resistant and cefotaxime resistant); and K. pneumoniae BAA-2146 (NDM1) (which expresses the metallo-beta-lactamase-1 enzyme and was previously considered meropenem resistant and cefotaxime resistant).
(§2) An isolated colony from an overnight Tryptocase Soy Agar (TSA) plate of each bacteria was suspended in 1 ml Tryptocase Soy Broth (TSB) in a 5 ml BD polystyrene round bottom tube. TSB cultures were incubated at 37° C. for 1.5 hours shaking. Three 250 μl aliquots of each stationary-phase culture were then transferred to three 2 ml Eppendorf microcentrifuge tubes. One tube contained 500 μl of Normal Saline (BD); the second tube contained 500 μl Normal Saline with meropenem at 10 μg/ml; and the third tube contained 500 μl Normal Saline with cefotaxime (abbreviated […]) at 10 μg/ml. Tubes were inverted then incubated at 37° C. stagnant for thirty minutes. Then […] of lysis buffer (0.5% SDS in PSB) was added to each tube and each tube was vortexed for 5 seconds. Post incubation, all tubes were spun at 10000 G for 5 minutes. Supernatant was decanted and the pellet resuspended in Normal Saline. Tubes were vortexed. OD600 was measured using Eppendorf uvettes in a spectrophotometer. The delta between the control and the meropenem normal saline, or the control and the cefotaxime normal saline was used to determine susceptibility.

Experiment [1] deals with K. pneumo BAA-2146 (NDM1). Described as above. It counts as cell-based, K. pneumoniae. On the procedure: as §1, §2
The next experiment deals with K. pneumo BAA-1705 (KPC). Described as above. It counts as cell-based, K. pneumoniae. On the procedure:
as §1, §2

The subject of the next experiment is E. coli BAA-197 (ESBL). The experiment is described as above. Format: cell-based. On the procedure: as §1, §2
In another experiment the test system is E. coli strain 35218. Put plainly: Carbapenem test, Triton fixation buffer and BacUni QuickFISH staining (Example 4). Format: cell-based. Particulars: FIG. 9; E. coli 35218; 10 μg/ml. On the procedure:
(§3) An isolated colony from an overnight Tryptocase Soy Agar (TSA) plate for each bacteria was suspended in 1 ml Tryptocase Soy Broth (TSB) in a 5 ml BD polystyrene round bottom tube. TSB cultures were incubated at 37° C. for 1.5 hours shaking. […] of each stationary-phase culture were transferred to 2 ml Eppendorf microcentrifuge tubes containing 500 μl of Normal Saline (BD); or 500 μl Normal Saline with imipenem, ertapenem, or meropenem at a concentration of […], […], or 40 μg/ml (26.67 μg/ml final concentration). Tubes were inverted then incubated at 37° C. stagnant for thirty minutes. Then 10 μl from each tube was pipetted onto plain glass slide on a 55° C. heat block, followed by 25 μl fixation buffer (0.5% T×100, 100 mM Tris pH 9, 24% Ethanol, and 10 mM NaCl); slide is incubated until sample is dry. Ten μl of BacUni QuickFISH hybridization buffer was added to each slide followed by a 22×22 mm coverslip. The slide was then incubated at 55° C. for 15 minutes. The slides were viewed on a fluorescence microscope 60× oil immersion on Dual TxR/FITC. Images were taken with a 1 second exposure.
(§4) The control fixation in this experiment has all the same components, except no Triton X-100. This was done to assess whether the selective lysis step is required to resolve a difference between susceptible and resistant bacteria.

The subject of experiment [2] is K. pneumoniae strain 13882. The experiment is described as above. Format: cell-based. Conditions: FIG. 10; K. pneumoniae 13882; 10 μg/ml. On the procedure: as §3, §4
The test system of experiment [3] is K. pneumoniae strain BAA2146 NDM+. The description is as above. Particulars: FIG. 11, 10 μg/ml. It counts as cell-based. On the procedure:
as §3, §4

For experiment [4], the system named is class D beta-lactamase Enterobacteriaceae. Put plainly: Lysis test on simulated blood cultures vs CLSI disk diffusion (Example 9). It counts as cell-based. Particulars: the one Class D strain incorrect with ertapenem; cut-off ≦30% resistant. On the procedure: In this example, isolates tested include strains with and without carbapenemases. From fresh blood agar plates, three colonies per strain were used to inoculate blood culture media containing human blood and grown overnight at 37° C. with shaking, producing a simulated blood culture. Cultures were then diluted 1:10 into broth medium and grown for an additional hour at 37° C. with shaking. For each strain, four 250 μL aliquots were added into four separate 2 mL Eppendorf microcentrifuge tubes. […] Tubes were vortexed to resuspend the pellet completely, and then OD600 measurement was taken and the percent change, or percent lysis, between the control and antibiotic tubes was calculated (percent change=[control OD−antibiotic OD]/control OD). Results were then compared to the susceptibility of the strains, determined using the Clinical and Laboratory Standards Institute (CLSI) methods for disk diffusion. […]
Of note, if a strain was determined to be intermediate to a drug by the disk diffusion method using CLSI breakpoints, it was expected to correlate to the resistant answer by the method of the invention. […] With this consideration, it is preferable that intermediate strains are conservatively scored as resistant to prevent possible treatment failure. […]

Consider `CO/N=C(\C(=O)N[C@@H]1C(=O)N2C(C(=O)O)=C(COC(C)=O)CS[C@H]12)c1csc(N)n1` [cefotaxime], for which the “% diff” value in the experiment with K. pneumo 13882 (K. pneumo 13882, OD600 vs control) was determined as 69.8%; in experiment [1] (K. pneumo BAA-2146 (NDM1), OD600 vs control) it was 6.7%; in the experiment on K. pneumo BAA-1705 (KPC) (K. pneumo BAA-1705 (KPC), OD600 vs control) it was 34.1%; in the experiment with E. coli BAA-197 (ESBL) (OD600 vs control) it was 19.1%. The OD600 worked out at 0.11 in the experiment on K. pneumo 13882 (K. pneumo 13882, antibiotic 10 μg/ml, 30 min, SDS lysis buffer + vortex, 1.5 h culture); 0.28 in experiment [1] (K. pneumo BAA-2146 (NDM1), antibiotic 10 μg/ml, 30 min, SDS lysis buffer + vortex, 1.5 h culture); 0.334 with K. pneumo BAA-1705 (KPC) (K. pneumo BAA-1705 (KPC), antibiotic 10 μg/ml, 30 min, SDS lysis buffer + vortex, 1.5 h culture); 0.292 in the experiment with E. coli BAA-197 (ESBL) (antibiotic 10 μg/ml, 30 min, SDS lysis buffer + vortex, 1.5 h culture). Moreover, the “assay score (sensitive or resistant)” value with K. pneumo 13882 (K. pneumoniae 13882) is recorded as “sensitive”; in experiment [1] (K. pneumoniae BAA-2146 (NDM1)), “resistant”; in the experiment with K. pneumo BAA-1705 (KPC) (K. pneumoniae BAA-1705 (KPC)) it was “resistant”; with E. coli BAA-197 (ESBL), “resistant”.

For `C[C@@H](O)[C@H]1C(=O)N2C(C(=O)O)=C(S[C@@H]3CN[C@H](C(=O)Nc4cccc(C(=O)O)c4)C3)[C@H](C)[C@H]12` [ertapenem], the “test result (susceptibility or resistance) by BacUni QuickFISH staining” value in the experiment with E. coli strain 35218 was “detect susceptibility”; in experiment [2] it was “detect susceptibility”; in experiment [3], “detect resistance”. The “lysis (percent change of OD600)” value in experiment [4] is on record as 36%.

(Values after patent US20160281125A1, “ANTIMICROBIAL COMPOUND SUSCEPTIBILITY TEST” (priority 2013, published 2016).)
